Measured values published in publication PMC4628711, “Antiproliferative and Antiestrogenic Activities of Bonediol an Alkyl Catechol from Bonellia macrocarpa” (BioMed Research International, 2015).

What was measured:
[1] = biological target: T1, ERα (estrogen receptor α) (Homo sapiens, UniProt P03372); assay: competitive [3H]-17β-estradiol radioligand binding, in vitro translated receptor (TNT reticulocyte lysate)
T1 construct: gene ESR1
T1 sequence (P03372 1-595): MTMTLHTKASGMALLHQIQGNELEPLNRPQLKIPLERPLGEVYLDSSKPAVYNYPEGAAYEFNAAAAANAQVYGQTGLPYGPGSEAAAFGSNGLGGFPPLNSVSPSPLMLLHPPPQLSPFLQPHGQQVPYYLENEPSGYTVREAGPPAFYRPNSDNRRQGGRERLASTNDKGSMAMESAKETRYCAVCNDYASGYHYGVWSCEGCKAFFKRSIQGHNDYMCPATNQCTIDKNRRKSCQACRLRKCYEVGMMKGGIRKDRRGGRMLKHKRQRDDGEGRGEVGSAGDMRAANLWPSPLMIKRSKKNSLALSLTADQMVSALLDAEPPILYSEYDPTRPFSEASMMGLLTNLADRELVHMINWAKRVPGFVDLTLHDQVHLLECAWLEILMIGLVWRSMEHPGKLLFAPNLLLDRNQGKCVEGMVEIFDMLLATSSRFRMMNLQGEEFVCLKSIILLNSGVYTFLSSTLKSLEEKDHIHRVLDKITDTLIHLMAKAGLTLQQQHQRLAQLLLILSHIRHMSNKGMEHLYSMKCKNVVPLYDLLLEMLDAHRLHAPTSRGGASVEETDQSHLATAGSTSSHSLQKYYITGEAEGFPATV

[2] = biological target: T2, ERβ (estrogen receptor β) (Homo sapiens, UniProt Q92731); assay: as above
T2 construct: gene ESR2
T2 sequence (Q92731 whole entry): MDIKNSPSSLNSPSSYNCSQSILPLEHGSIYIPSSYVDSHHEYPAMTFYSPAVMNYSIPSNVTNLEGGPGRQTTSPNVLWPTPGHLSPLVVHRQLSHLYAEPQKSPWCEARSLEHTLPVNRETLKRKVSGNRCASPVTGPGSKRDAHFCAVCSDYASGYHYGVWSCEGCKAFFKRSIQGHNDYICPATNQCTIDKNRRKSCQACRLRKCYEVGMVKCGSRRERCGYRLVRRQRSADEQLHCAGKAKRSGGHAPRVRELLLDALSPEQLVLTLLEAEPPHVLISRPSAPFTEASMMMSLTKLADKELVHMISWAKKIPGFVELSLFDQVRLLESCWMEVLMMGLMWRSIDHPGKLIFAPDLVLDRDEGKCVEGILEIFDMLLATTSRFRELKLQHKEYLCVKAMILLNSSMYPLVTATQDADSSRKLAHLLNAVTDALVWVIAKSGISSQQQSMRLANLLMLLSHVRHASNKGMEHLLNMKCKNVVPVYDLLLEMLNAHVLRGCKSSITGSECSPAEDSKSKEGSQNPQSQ

IC50 [1]: 2.5 µM
IC50 [2]: 2.1 µM
Substance: bonediol
